Reference: US20130079345A1, “[…] ACTIVE DISUBSTITUTED TRIAZINE DERIVATIVES” (BAYER INTELLECTUAL PROPERTY GMBH, priority 2010, published 2013)

Assays:
[1] = test system: NF-kappaB reporter gene activation in HEK293 cells; assay: NF-kappaB reporter assay; assay type: cell-based; conditions: Homo sapiens, 20 ng/ml TNF alpha, 5 h
Experimental: Cells were maintained in RPMI cell culture medium+glutamine (PAN Biotech GmbH, Aidenbach, Germany) supplemented with 10% fetal calf serum (PAA Laboratories GmbH, Pasching, Austria) and grown at 37° C., 5% CO2. HEK293 cells grown to 50% confluence were transfected with the Amaxa® Cell Line Nucleofector® Kit V (Lonza, Basel, Switzerland, catalog #VCA-1003). Transfections were performed according to manufacturer's optimized protocol for transfection of HEK293 cells. In brief, 2×10^5 cells were transfected with 5 μg highly purified plasmid DNA. Cells were transfected with a NF-kappa B reporter plasmid (pNFkBluc), pTALluc for control, or pMAXGFP for transfection control. After transfection, cells were taken up in 500 μL RPMI1640 cell culture medium, incubated for 1 h at 37° C., and 4.5 ml DMEM without phenol red were added per transfection. Transfected cells were seeded in 96 well plates (Greiner Bio-One, Frickenhausen, Germany, catalog #655098) with 100 μL cell suspension per well and incubated for 48 h. To each well, 100 μL DMEM with 2× concentrated compound diluted from 10 mM DMSO stocks, or 100 μL DMEM with 0.4% DMSO for control wells, was added. The compounds of general formula (I) summarized in Table 6 were used in this assay. Cells were stimulated with 20 ng/ml TNF alpha, and plates were incubated for 5 h at 37° C./5% CO2. Cell culture supernatants were removed to leave 100 μl medium per well, followed by addition of 100 μl Bright Glo luciferase assay reagent (Promega, Madison, Wis., USA, catalog #E2620), and shaking for 5 minutes in the dark. Luminescence was measured with a Victor Photospectrometer (Perkin Elmer, Waltham, Mass., USA). […], values were calculated with the software Excel Fit (IDBS, Guildford, UK) from 2-fold dilution series comprising at least 10 concentrations in duplicates.

[2] = test system: LPS-induced TNF alpha release in PBMCs; assay: TNF alpha release assay; assay type: cell-based; conditions: Homo sapiens, PBMC, 6 h, 1 μg/mL LPS
Experimental: Freshly isolated peripheral blood mononuclear cells (PBMCs) were seeded in 96-well cell culture plates with 200,000 cells in 100 μl cell culture medium (DMEM cell culture medium+glutamine from PAN Biotech GmbH, Aidenbach, Germany) supplemented with 10% fetal calf serum (PAA Laboratories GmbH, Pasching, Austria) per well and incubated overnight at 37° C., 5% CO2. To each well, 100 μL cell culture medium with 2× concentrated test compounds diluted from 10 mM DMSO stocks, or 100 μL DMEM with 0.4% DMSO for control wells, was added. The compounds of general formula (I) summarized in Table 6 were used in this assay. After incubation for 1 h at 37° C., 5% CO2, cells were stimulated with 1 μg/mL LPS (Lipopolysaccharides, Sigma, catalog #L4391-1MG; 1 mg/ml stock solution), or left untreated for negative controls, and plates were incubated for 6 h at 37° C./5% CO2. The cell culture plates were centrifuged at 2000 rpm for 5 minutes, and supernatants were transferred to fresh 96-well polypropylene plates. 25 µL of supernatants were transferred into 96-well-plates of the human TNF alpha-tissue culture kit (Meso Scale Discovery, Gaithersburg, Md., USA), and manufacturer's instructions were followed for analysis of TNF alpha levels. Chemoluminescence was measured in the Mesoscale Sector Imager, and EC50 values were calculated with the software Excel Fit (IDBS, Guildford, UK) from 2-fold dilution series comprising at least 6 concentrations in duplicates.

[3] = molecular target: T1, CDK8/Cyclin C (Homo sapiens, UniProt P49336); assay: LanthaScreen Eu Kinase Binding Assay, CDK8; conditions: tracer 236, read-out: Affinity (Kd) CDK8
T1 construct: purchased Invitrogen
Experimental: This protocol describes how the LanthaScreen Eu Kinase Binding Assay was performed to determine dissociation constants (Kd) of compounds of general formula (I) and CDK/Cyclin complexes. The principle behind this assay is based upon the binding and displacement of an Alexa Fluor 647-labeled tracer, which binds to the active site of kinases. Binding of the tracer to the kinase is detected using a Eu-labeled antibody. Simultaneous binding of both the tracer and antibody to the kinase gives rise to a FRET-signal. Binding of an inhibitor to the kinase competes for binding with the tracer, resulting in a loss of FRET.
The compounds of general formula (I) summarized in Table 1 were diluted from a 10 mM DMSO stock solution 1:10 in a total volume of 15 μL DMSO. This compound predilution was then serial diluted 1:3 over 8 steps in DMSO and briefly spun down. Each compound solution was now diluted 1:33.33 in kinase buffer (HEPES: 20 mM, pH: 8.0; MgCl2: 10 mM; DTT: 1 mM; Brij-35: 0.01%), mixed thoroughly and spun down. For every sample, 5 μL of the diluted compound were mixed with 5 μL tracer working solution (e.g. 60 nM tracer 236 in kinase buffer for CDK2/Cyclin A) and 5 μL CDK/Cyclin/Anti-GST-AB-working solution (e.g. 15 nM CDK2/Cyclin A, 1:250 dilution of Anti-GST-AB in kinase buffer) in a well of a small volume 384 well plate (Corning Incorporated, Corning, N.Y., USA; order no. 3673). […] For positive controls, in each well 5 μL of DMSO working solution (3% DMSO diluted in kinase buffer) was mixed with 5 μL CDK/Cyclin/Anti-GST-AB-working solution: (e.g. 15 nM CDK2/Cyclin A, 1:250 dilution of Anti-GST-AB in kinase buffer) and 5 μL Tracer working solution (e.g. 60 nM Tracer 236 in kinase buffer for CDK2/Cyclin A). Positive and negative controls were calculated from at least 8 different sample wells. The 384 well plates were mixed in a Teleshaker plate mixer (Beckman Coulter, Brea, Calif., USA) at 2000 rpm for 40 sec, and incubated for 1 h at room temperature before reading. The FRET signal was measured at 340 nm excitation, 665 nm and 615 nm emission (for the kinase tracer and LanthaScreen Eu-AB, respectively) with an Envision spectrophotometer (Perkin Elmer, Waltham, Mass., USA) with 50 μs delay and 300 μs integration time. Kd values were determined from the sigmoidal dose response curves with the software Quattro Workflow (Quattro GmbH, Munich, Germany).

[4] = molecular target: T2, CDK7/CyclinH/Mat1 (Homo sapiens, UniProt P50613); assay: LanthaScreen Eu Kinase Binding Assay, CDK7; conditions: tracer 236, read-out: Affinity (Kd) CDK7
T2 construct: purchased Carna Biosciences
Method in brief: (§1)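 TR-FRET competition binding with Alexa Fluor 647 tracer and Eu-anti-GST antibody; e.g. CDK2/Cyclin A 15 nM with tracer 236 60 nM (working solutions). Kinase buffer: HEPES 20 mM pH 8.0, MgCl2 10 mM, DTT 1 mM, Brij-35 0.01%; 8-point 1:3 series, 1 h at room temperature; Kd from sigmoidal dose-response curves.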

[5] = molecular target: T3, CDK2/CyclinA (Homo sapiens, UniProt P24941); assay: LanthaScreen Eu Kinase Binding Assay, CDK2; conditions: tracer 236, read-out: Affinity (Kd) CDK2
T3 construct: purchased Proqinase
Method in brief: as §1

[6] = molecular target: T4, CDK9/Cyclin K (Homo sapiens, UniProt P50750); assay: LanthaScreen Eu Kinase Binding Assay, CDK9/Cyclin K; conditions: tracer 236, read-out: Affinity (Kd) CDK9/Cyclin K
T4 construct: purchased Invitrogen
Method in brief: as §1

[7] = molecular target: T5, CDK9/Cyclin T1 (Homo sapiens, UniProt P50750); assay: LanthaScreen Eu Kinase Binding Assay, CDK9/Cyclin T1; conditions: tracer 236, read-out: Affinity (Kd) CDK9/Cyclin T1
T5 construct: purchased Invitrogen
Method in brief: as §1

T2 sequence (P50613 whole entry): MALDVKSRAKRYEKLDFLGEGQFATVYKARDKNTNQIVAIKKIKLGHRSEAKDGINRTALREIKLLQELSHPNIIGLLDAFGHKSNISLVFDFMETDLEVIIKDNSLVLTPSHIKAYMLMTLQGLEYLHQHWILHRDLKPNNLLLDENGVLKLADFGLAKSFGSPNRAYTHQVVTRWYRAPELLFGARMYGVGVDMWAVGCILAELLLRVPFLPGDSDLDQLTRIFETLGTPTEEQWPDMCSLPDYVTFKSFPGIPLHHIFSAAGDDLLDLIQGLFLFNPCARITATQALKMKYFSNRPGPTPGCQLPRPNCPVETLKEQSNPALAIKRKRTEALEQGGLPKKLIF
T2 sequence (P51946 whole entry partner): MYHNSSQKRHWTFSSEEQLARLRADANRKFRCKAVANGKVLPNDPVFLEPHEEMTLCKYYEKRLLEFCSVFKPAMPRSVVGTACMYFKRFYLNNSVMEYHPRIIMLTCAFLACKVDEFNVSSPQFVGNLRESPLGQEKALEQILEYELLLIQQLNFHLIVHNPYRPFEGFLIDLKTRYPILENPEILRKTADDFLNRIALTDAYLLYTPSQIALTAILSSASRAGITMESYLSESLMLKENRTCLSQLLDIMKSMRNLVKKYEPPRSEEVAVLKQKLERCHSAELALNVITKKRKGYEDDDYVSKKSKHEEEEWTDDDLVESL
T2 sequence (P51948 whole entry partner): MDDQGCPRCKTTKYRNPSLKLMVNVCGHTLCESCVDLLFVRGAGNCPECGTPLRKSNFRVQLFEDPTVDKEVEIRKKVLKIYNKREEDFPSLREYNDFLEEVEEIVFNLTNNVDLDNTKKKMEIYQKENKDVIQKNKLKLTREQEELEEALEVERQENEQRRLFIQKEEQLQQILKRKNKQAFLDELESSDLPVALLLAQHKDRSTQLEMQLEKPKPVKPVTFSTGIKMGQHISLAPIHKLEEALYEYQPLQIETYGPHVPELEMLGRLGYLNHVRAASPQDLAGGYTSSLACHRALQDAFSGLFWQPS
T4 sequence (P50750 whole entry): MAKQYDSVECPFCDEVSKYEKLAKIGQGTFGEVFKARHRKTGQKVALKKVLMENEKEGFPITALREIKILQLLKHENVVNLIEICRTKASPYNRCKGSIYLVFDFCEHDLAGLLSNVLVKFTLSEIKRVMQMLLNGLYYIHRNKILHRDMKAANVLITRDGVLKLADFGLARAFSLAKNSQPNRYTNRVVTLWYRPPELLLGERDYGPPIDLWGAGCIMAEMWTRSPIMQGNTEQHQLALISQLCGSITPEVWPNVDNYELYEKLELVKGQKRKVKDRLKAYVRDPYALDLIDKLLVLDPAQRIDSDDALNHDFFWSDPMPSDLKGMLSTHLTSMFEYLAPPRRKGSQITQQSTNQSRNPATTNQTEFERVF
T4 sequence (O75909 whole entry partner): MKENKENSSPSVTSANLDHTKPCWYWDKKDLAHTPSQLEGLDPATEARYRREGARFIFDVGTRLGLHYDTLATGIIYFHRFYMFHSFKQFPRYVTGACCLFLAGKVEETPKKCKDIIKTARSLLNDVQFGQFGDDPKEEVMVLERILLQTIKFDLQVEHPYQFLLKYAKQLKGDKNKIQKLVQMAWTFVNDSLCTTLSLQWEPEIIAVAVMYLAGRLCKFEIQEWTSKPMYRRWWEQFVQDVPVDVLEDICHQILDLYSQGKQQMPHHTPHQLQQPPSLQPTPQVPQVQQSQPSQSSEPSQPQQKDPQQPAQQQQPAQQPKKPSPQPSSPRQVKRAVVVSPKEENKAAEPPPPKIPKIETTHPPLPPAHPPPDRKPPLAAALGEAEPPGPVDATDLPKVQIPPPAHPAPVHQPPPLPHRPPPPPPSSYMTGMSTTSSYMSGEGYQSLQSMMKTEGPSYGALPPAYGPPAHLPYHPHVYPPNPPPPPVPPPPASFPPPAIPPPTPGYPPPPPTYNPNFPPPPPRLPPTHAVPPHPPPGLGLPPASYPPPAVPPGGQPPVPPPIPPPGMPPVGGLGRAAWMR
T5 sequence (P50750 whole entry): as the sequence (P50750 whole entry) above
T5 sequence (O60563 whole entry partner): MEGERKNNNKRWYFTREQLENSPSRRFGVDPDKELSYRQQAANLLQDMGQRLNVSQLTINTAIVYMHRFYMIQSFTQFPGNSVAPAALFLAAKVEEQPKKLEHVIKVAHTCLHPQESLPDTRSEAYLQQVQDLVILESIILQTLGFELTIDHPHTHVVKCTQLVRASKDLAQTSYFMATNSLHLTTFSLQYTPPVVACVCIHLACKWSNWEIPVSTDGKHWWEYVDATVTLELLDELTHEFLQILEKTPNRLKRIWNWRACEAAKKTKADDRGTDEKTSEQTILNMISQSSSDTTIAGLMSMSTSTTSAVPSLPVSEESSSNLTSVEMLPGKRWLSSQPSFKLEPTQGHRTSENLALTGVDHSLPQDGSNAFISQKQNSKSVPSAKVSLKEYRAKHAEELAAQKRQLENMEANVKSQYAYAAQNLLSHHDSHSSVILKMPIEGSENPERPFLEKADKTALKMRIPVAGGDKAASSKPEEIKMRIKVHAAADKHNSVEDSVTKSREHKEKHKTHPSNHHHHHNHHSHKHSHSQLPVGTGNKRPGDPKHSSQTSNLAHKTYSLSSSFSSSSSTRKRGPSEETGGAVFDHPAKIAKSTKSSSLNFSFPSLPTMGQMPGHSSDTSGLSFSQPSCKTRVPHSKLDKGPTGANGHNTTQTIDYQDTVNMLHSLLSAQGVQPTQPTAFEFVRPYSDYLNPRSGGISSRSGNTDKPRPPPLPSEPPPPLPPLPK
T1 sequence (P49336 whole entry): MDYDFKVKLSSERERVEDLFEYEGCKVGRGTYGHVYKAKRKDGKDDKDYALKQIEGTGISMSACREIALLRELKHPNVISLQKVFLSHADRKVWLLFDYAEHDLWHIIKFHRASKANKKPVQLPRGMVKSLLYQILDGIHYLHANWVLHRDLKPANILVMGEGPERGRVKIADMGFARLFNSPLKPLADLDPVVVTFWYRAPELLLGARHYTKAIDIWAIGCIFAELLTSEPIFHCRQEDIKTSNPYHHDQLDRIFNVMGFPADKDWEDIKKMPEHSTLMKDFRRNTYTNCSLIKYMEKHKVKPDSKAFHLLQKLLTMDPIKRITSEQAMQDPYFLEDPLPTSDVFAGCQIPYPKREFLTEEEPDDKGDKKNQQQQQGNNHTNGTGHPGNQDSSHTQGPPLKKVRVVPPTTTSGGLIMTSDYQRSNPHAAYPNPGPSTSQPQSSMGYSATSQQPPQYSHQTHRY
T1 sequence (P24863 whole entry partner): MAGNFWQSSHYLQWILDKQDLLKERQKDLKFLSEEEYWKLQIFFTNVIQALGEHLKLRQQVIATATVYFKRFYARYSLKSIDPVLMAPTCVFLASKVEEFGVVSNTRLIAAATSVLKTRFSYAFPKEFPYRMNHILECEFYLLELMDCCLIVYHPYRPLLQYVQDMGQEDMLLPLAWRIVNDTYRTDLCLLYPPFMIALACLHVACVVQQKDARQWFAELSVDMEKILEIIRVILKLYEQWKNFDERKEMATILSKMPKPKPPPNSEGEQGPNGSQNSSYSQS

Kd [3]: > 10 µM | Kd [4]: > 30 µM | Kd [5]: 2.36 µM | Kd [6]: 0.159 µM | Kd [7]: 0.478 µM
Structure (SMILES): COc1ccccc1-c1ncnc(Nc2cccc(NC(=O)Nc3ccccc3)c2)n1 [Compound N1, N-[3-((4-(2-Methoxyphenyl)-1,3,5-triazin-2-yl)amino)phenyl]-N′-phenyl-urea]
IC50 [1]: 18.4 µM | IC50 [2]: 6.71 µM
